Read-outs that look alike come from different tables or passages of the source.
Experiments:
[1] = biological target: PG-synthetase; test: Prostaglandin-synthetase inhibition test; format: biochemical; settings: AA = Arachidonic acid
[2] = tested on: mice; test: Writhing test in mice (acetic acid induced writhing), analgesic activity; format: in vivo; settings: for ED50: Mus musculus, po, 20 min, read-out: Analgesic ED50 Writhing test; for analgesic activity compared with the compounds of the present invention: statement in words, refers to the pharmacological tests of Table 1
Protocol: Writhing test in mice. (SPF females of the strain NMRI/BOM, weighing 20-25 g). The test substance was administered by gavage ½ hour prior to an intraperitoneal injection of acetic acid. The number of writhing movements in 20 minutes was counted.

[3] = in vivo; format: in vivo; settings: mouse, in vivo, po, read-out: Acute toxicity LD50
[4] = Ulcerogenic activity in rats; settings: rat, in vivo, po
Protocol: SPF males of the strain Sprague-Dawley weighing 180-250 g were used. 5 hours after administration by gavage of the test substance the rats were killed by an overdose of ether. The stomachs were removed and opened along the greater curvature. The number of ulcers was assessed and compared to control rats.

[5] = tested on: rats; test: Test for antiinflammatory activity in rats (carrageenin paw); format: in vivo; settings: Rattus norvegicus, po, read-out: Antiinflam-matory test ED50
Protocol: SPF males of the strain Sprague-Dawley, weighing ~ 150 g were used. The test was performed according to Winter et al.: Proc. Soc. […] The test substance was given by gavage 1 hour prior to injection of a carrageenin-suspension into the rat paw.

[6] = tested on: rats; test: Randall-Selitto test in rats (analgesia-meter, brewer's yeast paw), analgesic activity; format: in vivo; settings: Rattus norvegicus, po, read-out: Analgesic ED50 Analgesia-meter
Protocol: 2. Randall-Selitto test in rats. (SPF males of the strain Sprague-Dawley, weighing 90-100 g). The test was performed on the whole as described by Randall and Selitto: Arch. Int. Pharmacodyn. […] An analgesia-meter of the make Ugo Basile was used and the test substance was administered by gavage 2 hours after injection of a suspension of brewer's yeast into the rat paw.

[7] = tested on: mice; test: in vivo; format: in vivo; settings: statement in words, refers to the pharmacological data of Table 1
[8] = mice, by gavage ½ hour prior to intraperitoneal acetic acid, writhing movements in 20 minutes
[9] = rats, by gavage 1 hour prior to carrageenin injection into the paw
[10] = rats, by gavage 2 hours after brewer's yeast injection into the paw
[11] = mice, by gavage, observation period 168 hours
[12] = rats, by gavage, stomachs examined 5 hours after administration, read-out: Ulcerogenic activity ED50

SMILES	Inhibition of PG-synthetase IC50 [1]	ED50 [2, 8]	LD50 at 168 h [3]	TD50 at 5 h [4]	ED50 [5, 9]	ED50 [6, 10]	analgesic activity compared with the compounds of the present invention [2]	LD50 at 168 h [3, 11]	toxicity compared with the compounds of the present invention [7]	TD50 at 5 h [4, 12]	ED50 [2]	ED50 [5]	ED50 ([6]; 2 h)
COc1ccc(-c2nc(-c3ccc(F)cc3F)[nH]c2-c2ccc(OC)cc2)cc1 [Compound 6, 2-(2,4-Difluorphenyl)-4,5-bis(p-methoxyphenyl)imidazole]	0,27 µg/10 µg AA	4 mg/kg	> 2000 mg/kg	> 300 mg/kg	47 mg/kg	0.8 mg/kg							
COc1ccc(-c2nc(-c3cc(F)ccc3F)[nH]c2-c2ccc(OC)cc2)cc1 [Compound 7, 2-(2,5-Difluorphenyl)-4,5-bis(p-methoxyphenyl)imidazole]	1,71 µg/10 µg AA	16 mg/kg	> 2000 mg/kg	1000 mg/kg	110 mg/kg	0.55 mg/kg							
COc1ccc(-c2nc(-c3ccc(F)cc3)[nH]c2-c2ccc(OC)cc2)cc1 [Compound 4, 2-(p-Fluorphenyl)-4,5-bis(p-methoxyphenyl)imidazole]	0,18 µg/10 µg AA	5 mg/kg	1900 mg/kg	360 mg/kg	14 mg/kg	0.3 mg/kg							
COc1ccc(-c2nc(C(C)C)[nH]c2-c2ccc(OC)cc2)cc1 [Compound 12, 2-Isopropyl-4,5-bis(p-methoxyphenyl)imidazole, reference compound]		200 mg/kg					much weaker analgesic activity	> 2000 mg/kg					
COc1ccc(-c2nc(C(F)(F)F)[nH]c2-c2ccc(OC)cc2)cc1 [Compound 11, 2-Trifluormethyl-4,5-bis(p-methoxyphenyl)imidazole, reference compound]		75 mg/kg		450 mg/kg	25 mg/kg		weaker analgesic activity		higher toxicity				
COc1ccc(-c2nc(-c3cc(F)cc(F)c3)[nH]c2-c2ccc(OC)cc2)cc1 [Compound 10, 2-(3,5-Difluorphenyl)-4,5-bis(p-methoxyphenyl)imidazole]		10 mg/kg		780 mg/kg	150 mg/kg	0.45 mg/kg							
COc1ccc2cc([C@H](C)C(=O)O)ccc2c1 [Compound 14, Naproxen, reference compound]	0,49 µg/10 µg AA				10 mg/kg	1.6 mg/kg				19.5 mg/kg			
COc1ccc(-c2nc(-c3cccc(F)c3)[nH]c2-c2ccc(OC)cc2)cc1 [Compound 3, 2-(m-Fluorphenyl)-4,5-bis(p-methoxyphenyl)imidazole]		3.2 mg/kg	> 2000 mg/kg	870 mg/kg	38 mg/kg	0.25 mg/kg							
COc1ccc(-c2nc(-c3ccccc3F)[nH]c2-c2ccc(OC)cc2)cc1 [Compound 2, 2-(o-Fluorphenyl)-4,5-bis(p-methoxyphenyl)imidazole]		15 mg/kg	> 2000 mg/kg	590 mg/kg	130 mg/kg	0.3 mg/kg							
COc1ccc(-c2nc(-c3ccc(F)cc3)n(CCC(=O)O)c2-c2ccc(OC)cc2)cc1 [Compound 1, 1-(2-Carboxyethyl)-2-(p-fluorphenyl)-4,5-bis(p-methoxyphenyl)imidazole, reference compound]		> 200 mg/kg						> 2000 mg/kg					
COc1ccc(-c2nc(-c3c(F)cccc3F)[nH]c2-c2ccc(OC)cc2)cc1 [Compound 8, 2-(2,6-Difluorphenyl)-4,5-bis(p-methoxyphenyl)imidazole]	0,13 µg/10 µg AA	6.8 mg/kg	> 2000 mg/kg	> 300 mg/kg	300 mg/kg	0.55 mg/kg							
COc1ccc2c(c1)c(CC(=O)O)c(C)n2C(=O)c1ccc(Cl)cc1 [Compound 13, Indomethacin, reference compound]	0,65 µg/10 µg AA							21 mg/kg		9.7 mg/kg	8 mg/kg	28 mg/kg	0.36 mg/kg
COc1ccc(-c2nc(-c3cccc(F)c3F)[nH]c2-c2ccc(OC)cc2)cc1 [Compound 5, 2-(2,3-Difluorphenyl)-4,5-bis(p-methoxyphenyl) imidazole]	0,21 µg/10 µg AA	4.6 mg/kg	> 2000 mg/kg	800 mg/kg	120 mg/kg	0.55 mg/kg							
CC(=O)Oc1ccccc1C(=O)O [Compound 15, Acetyl salicylic acid, reference compound]	7,61 µg/10 µg AA							1700 mg/kg		340 mg/kg	100 mg/kg	350 mg/kg	
COc1ccc(-c2nc(-c3ccc(F)c(F)c3)[nH]c2-c2ccc(OC)cc2)cc1 [Compound 9, 2-(3,4-Difluorphenyl)-4,5-bis(p-methoxyphenyl)imidazole]		1.9 mg/kg			15 mg/kg			> 2000 mg/kg					

Reference: patent publication EP0005219A1, “Arylimidazoles, their synthesis and pharmaceutical or veterinary preparations containing them” (A/S Dumex (Dumex Ltd.), priority 1978, dated 1979)
